According to publication PMC6277767, “Broad and Region-Specific Impacts of the Synthetic Cannabinoid CP 55,940 in Adolescent and Adult Female Mouse Brains” (Frontiers in Molecular Neuroscience, 2018):

Tested on: CD1 female mouse brain lipidome
Test: Brain-region lipid levels (HPLC/MS/MS lipidomics) 2 h after single i.p. 3 mg/kg CP 55,940 vs vehicle
Format: in vivo
Parameters: N-arachidonoyl phenylalanine level, Mean / N-stearoyl tryptophan level, Mean / N-stearoyl proline level, Mean / N-stearoyl leucine level, Mean / N-stearoyl phenylalanine level, Mean / N-stearoyl serine level, Mean / N-stearoyl methionine level, Mean: unit: moles per gram
Protocol: The Bloomington Institutional Animal Care and Use Committee of Indiana University reviewed and approved the animal procedures. Female mice from the CD1 strain were utilized to match our study examining THC’s effects on the brain lipidome ([Leishman et al., 2018]). Mice were given a single i.p. injection of either 3 mg/kg CP or 1:1:18 cremophor:ethanol:saline vehicle (please refer to the section “3 mg/kg CP Is Relevant for Synthetic Cannabinoid Abuse and Has Stronger Effects on the Female Mouse Brain Lipidome During Adolescence” for a justification of dose and use of female mice). Three different age groups were given injections: PND 35 and PND 50 adolescents, and adult mice (PND 113). At least eight mice in each age group received CP and at least eight received vehicle. Matching the THC study time course ([Leishman et al., 2018]), mice were sacrificed via rapid decapitation 2 h after injection. Brains were immediately removed and flash-frozen in liquid nitrogen, and then stored at -80°C until dissections were performed. Brains were dissected on an ice-cold dissection plate into the following regions: STR, HIPP, CER, THAL, CTX, HYP, MID, and STEM. These abbreviations for these brain areas will be used exclusively when discussing the results generated by these specific dissections. Each dissected area was immediately placed in liquid nitrogen and then stored at -80°C until used for lipid extraction.
Tissue extracts were performed as previously described ([Bradshaw et al., 2006]; [Stuart et al., 2013]; [Raboune et al., 2014]; [Leishman et al., 2016a],[b], [2017], [2018]). First, samples were shock frozen in liquid nitrogen, weighed, and transferred to a centrifuge tube. The mass of the largest sample was multiplied by 50 to determine how many milliliters of HPLC-grade methanol (Fisher, Fair Lawn, NJ, United States) to add. Then, samples were spiked with 500 pmol deuterium-labeled NAGly (d8NAGly; Cayman Chemical, Ann Arbor, MI, United States). Samples were placed on ice in darkness for 2 h then individually homogenized and centrifuged at 19,000 × g for 20 min at 20°C. Supernatants were diluted with HPLC water (purified in house) to make a solution of 75% water, 25% supernatant. Lipids were partially purified on C18 solid phase extraction columns (Agilent, Palo Alto, CA, United States). A series of four elutions with 1.5 mL of 60%, 75%, 85%, and 100% methanol were collected ([Stuart et al., 2013]; [Leishman et al., 2016a],[b], [2018]).
As previously described ([Bradshaw et al., 2006]; [Tan et al., 2006]; [Smoum et al., 2010]; [Stuart et al., 2013]; [Tortoriello et al., 2013]; [Raboune et al., 2014]; [Leishman et al., 2016a],[b], [2017], [2018]), samples were analyzed using an Applied Biosystems API 3000 triple quadrupole mass spectrometer with electrospray ionization (Foster City, CA, United States). Using an Agilent XDB-C18 reversed phase analytical column and optimized mobile phase gradients, 20 μL from each elution were chromatographed. Two Shimadzu 10ADvp pumps (Columbia, MD, United States) provided the pressure for gradient elution. Mobile phase A: 20% methanol, 80% water (v/v) and 1 mM ammonium acetate (Sigma, St. Louis, MO, United States). Mobile phase B: 100% methanol, 1 mM ammonium acetate. Every method run began with 0% mobile phase B, reached 100% mobile phase B flowing at 0.2 mL/min, and gradually returned to 0% mobile phase B.
This screening library will be referred to as the lipidome when discussing data from this study. HPLC/MS/MS data were analyzed using Analyst software (Applied Biosystems) ([Bradshaw et al., 2006]; [Tan et al., 2006]; [Stuart et al., 2013]; [Tortoriello et al., 2013]; [Raboune et al., 2014]; [Leishman et al., 2016a],[b], [2017], [2018]). Chromatograms (Supplementary Figure 3) were generated by determining the retention time of analytes from the analytical column with a [M-1] or [M+1] parent peak and a fragmentation peak corresponding to the programmed values. […]

[1] = hippocampus, PND 35 WT female mice, 3mg/kg CP 55,940
[2] = hypothalamus, PND 50, 3mg/kg CP 55,940
[3] = hypothalamus, PND 50 female mice, 3mg/kg CP 55,940

Compound: CCCCCCC(C)(C)c1ccc([C@@H]2C[C@H](O)CC[C@H]2CCCO)c(O)c1 [CP 55,940]
- N-arachidonoyl tryptophan level, Mean [1]: BDL
- N-arachidonoyl tyrosine level, Mean [1]: 7.88E-13
- N-docosahexaenoyl GABA level, Mean [1]: 9.2E-13
- N-docosahexaenoyl alanine level, Mean [1]: 5.16E-12
- N-docosahexaenoyl ethanolamine level, Mean [1]: 3.15E-11
- N-docosahexaenoyl glycine level, Mean [1]: 1.89E-11
- N-docosahexaenoyl leucine level, Mean [1]: 7.64E-13
- N-docosahexaenoyl methionine level, Mean [1]: BDL
- N-docosahexaenoyl phenylalanine level, Mean [1]: 1.25E-12
- N-docosahexaenoyl proline level, Mean [1]: BDL
- N-docosahexaenoyl serine level, Mean [1]: 2.42E-11
- N-docosahexaenoyl tryptophan level, Mean [1]: BDL
- N-docosahexaenoyl tyrosine level, Mean [1]: PISSR
- N-docosahexaenoyl valine level, Mean [1]: PISSR
- N-linoleoyl GABA level, Mean [1]: 4.99E-13
- N-linoleoyl alanine level, Mean [1]: 2.58E-12
- N-linoleoyl ethanolamine level, Mean [1]: 6.76E-11
- N-linoleoyl glycine level, Mean [1]: 5.29E-12
- N-linoleoyl leucine level, Mean [1]: 3.89E-13
- N-linoleoyl methionine level, Mean [1]: BDL
- N-linoleoyl phenylalanine level, Mean [1]: 2.51E-13
- N-linoleoyl proline level, Mean [1]: BDL
- N-linoleoyl serine level, Mean [1]: 8.04E-11
- N-linoleoyl tryptophan level, Mean [1]: BDL
- N-linoleoyl tyrosine level, Mean [1]: PISSR
- N-linoleoyl valine level, Mean [1]: PISSR
- N-nervonoyl valine level, Mean [1]: BDL
- N-oleoyl GABA level, Mean [1]: 2.89E-12
- N-oleoyl alanine level, Mean [1]: 1.01E-11
- N-oleoyl dopamine level, Mean [1]: BDL
- N-oleoyl ethanolamine level, Mean [1]: 1.48E-10
- N-oleoyl glycine level, Mean [1]: 2.1E-11
- N-oleoyl leucine level, Mean [1]: 1.71E-12
- N-oleoyl methionine level, Mean [1]: 8.45E-13
- N-oleoyl phenylalanine level, Mean [1]: 1.23E-12
- N-oleoyl proline level, Mean [1]: PISSR
- N-oleoyl serine level, Mean [1]: 3.91E-10
- N-oleoyl tryptophan level, Mean [1]: PISSR
- N-oleoyl tyrosine level, Mean [1]: 3.7E-13
- N-oleoyl valine level, Mean [1]: 7.17E-13
- N-palmitoyl GABA level, Mean [1]: 5.66E-12
- N-palmitoyl alanine level, Mean [1]: 1.96E-11
- N-palmitoyl ethanolamine level, Mean [1]: 6.04E-11
- N-palmitoyl glycine level, Mean [1]: 4.65E-11
- N-palmitoyl leucine level, Mean [1]: 4.19E-12
- N-palmitoyl methionine level, Mean [1]: PISSR
- N-palmitoyl phenylalanine level, Mean [1]: 2.85E-12
- N-palmitoyl proline level, Mean [1]: 1.75E-12
- N-palmitoyl serine level, Mean [1]: 7.46E-11
- N-palmitoyl tryptophan level, Mean [1]: 4.02E-13
- N-palmitoyl tyrosine level, Mean [1]: 1.11E-12
- N-palmitoyl valine level, Mean [1]: 1.58E-12
- N-stearoyl GABA level, Mean [1]: 5.59E-12
- N-stearoyl alanine level, Mean [1]: 1.75E-11
- N-stearoyl ethanolamine level, Mean [1]: 1.72E-11
- N-stearoyl glycine level, Mean [1]: 2.5E-11
- N-stearoyl leucine level, Mean [1]: 1.77E-12
- N-stearoyl methionine level, Mean [1]: 1.74E-12
- N-stearoyl phenylalanine level, Mean [1]: 2.56E-12
- N-stearoyl serine level, Mean [1]: 3.13E-11
- N-stearoyl tryptophan level, Mean [1]: 1.25E-12
- N-stearoyl tyrosine level, Mean [1]: 1.27E-13
- Oleic acid level, Mean [1]: 2.69E-09
- PGE2 level, Mean [1]: 1.12E-09
- PhosphoLEA level, Mean [1]: 2.75E-11
- THC level, Mean [1]: BDL
- 2-arachidonoyl glycerol, Direction (relative to Veh) [2]: ↓
- N-arachidonoyl phenylalanine, Direction (relative to Veh) [2]: ↓
- N-palmitoyl leucine, Direction (relative to Veh) [2]: ↑
- PGF2α Direction (relative to Veh) [2]: ↑
- PGF2α Magnitude (x Veh level) (hypothalamus, PND 50, 3mg/kg CP 55,940, ANOVA p .005): 1.49 x Veh level
- N-arachidonoyl phenylalanine, Magnitude (x Veh level) (hypothalamus, PND 50, 3mg/kg CP 55,940, ANOVA p .013): 0.70 x Veh level
- N-palmitoyl leucine, Magnitude (x Veh level) (hypothalamus, PND 50, 3mg/kg CP 55,940, ANOVA p .022): 1.34 x Veh level
- 2-arachidonoyl glycerol, Magnitude (x Veh level) (hypothalamus, PND 50, 3mg/kg CP 55,940, ANOVA p .033): 0.80 x Veh level
- 2-arachidonoyl glycerol level, Mean [3]: 2.57E-10
- 2-linoleoyl glycerol level, Mean [3]: 1E-10
- 2-oleoyl glycerol level, Mean [3]: 1.24E-09
- 2-palmitoyl glycerol level, Mean [3]: 2.63E-09
- 6-ketoPGF1α level, Mean [3]: 1.26E-11
- 11-OH-THC level, Mean [3]: BDL
- 11-nor-9-carboxyTHC level, Mean [3]: BDL
- Arachidonic acid level, Mean [3]: 1.92E-10
- Cannabidiol level, Mean [3]: BDL
- Linoleic acid level, Mean [3]: 1.86E-10
- N- stearoyl valine level, Mean [3]: PISSR
- N-arachidonoyl GABA level, Mean [3]: 6.6E-12
- N-arachidonoyl alanine level, Mean [3]: PISSR
- N-arachidonoyl dopamine level, Mean [3]: BDL
- N-arachidonoyl ethanolamine level, Mean [3]: 2.54E-11
- N-arachidonoyl glycine level, Mean [3]: 4.44E-13
- N-arachidonoyl methionine level, Mean [3]: BDL
- N-arachidonoyl phenylalanine level, Mean [3]: 3.4E-13
- N-arachidonoyl proline level, Mean [3]: BDL
- N-arachidonoyl serine level, Mean [3]: PISSR
- N-arachidonoyl taurine level, Mean [3]: 6.54E-12
- N-arachidonoyl tryptophan level, Mean [3]: BDL
- N-arachidonoyl tyrosine level, Mean [3]: BDL
- N-docosahexaenoyl GABA level, Mean [3]: PISSR
- N-docosahexaenoyl alanine level, Mean [3]: PISSR
- N-docosahexaenoyl ethanolamine level, Mean [3]: 3.64E-11
- N-docosahexaenoyl glycine level, Mean [3]: 1.54E-13
- N-docosahexaenoyl leucine level, Mean [3]: PISSR
